The test system of assay [1] is Human keratinocytes (HaCaT). Briefly: Hyaluronic acid synthesis enhancement, Quantikine ELISA Hyaluronan. In kind it is cell-based. As to conditions: 1 ppm, 72 hours, vs negative control (DMEM containing 0% serum). The method, then:
Human keratinocytes (HaCaT) were treated with each sample for 72 hours. Thereafter, a hyaluronic acid synthesis rate was derived by measuring hyaluronic acid using R&D systems' Quantikine ELISA Hyaluronan. The skin moisturizing ability of the sample was expressed as an increase rate (%) of hyaluronic acid synthesis, which was calculated and quantified in comparison to a negative control group (treated with DMEM containing 0% serum).
The calculation formula of the increase rate of hyaluronic acid synthesis, each sample, and the results thereof are shown in Table 6 below.
Increase rate of hyaluronic acid synthesis (%)=(Hyaluronic acid synthesis rate of Sample−Hyaluronic acid synthesis rate of Negative control)/Hyaluronic acid synthesis rate of Negative control
(In general: ELISA stands for enzyme-linked immunosorbent assay.)

The test system of a further assay is Human dermal fibroblasts. Briefly: Collagen synthesis enhancement, procollagen type I C-peptide (PIP) EIA kit. The class given is cell-based. As to conditions: 10 ppb, 48 hours, vs negative control (DMEM containing 0% serum). How it is done: Human dermal fibroblasts were treated with each sample for 48 hours. Thereafter, a collagen synthesis rate was measured by detecting collagen using a method of a procollagen type I C-peptide (PIP) EIA kit. The collagen synthesis efficiency of the sample was expressed as an increase rate (%) of collagen synthesis, which was calculated and quantified in comparison to a negative control group (DMEM containing 0% serum).
Increase rate of collagen synthesis (%)=(Collagen synthesis rate of Sample−Collagen synthesis rate of Negative control)/Collagen synthesis rate of Negative control

Turning to `CC1=C(/C=C/C(C)=C/C=C/C(C)=C/C(=O)O)C(C)(C)CCC1` [Retinoic acid], the “Increase rate of hyaluronic acid synthesis” value in assay [1] came to 13.8%.

Regarding TGF-β, the “Increase rate of collagen synthesis” value with Human dermal fibroblasts amounted to 15.2%.

The record behind these values is patent US20240041754A1, “NOVEL SACCHAROMYCES CEREVISIAE STRAIN AND USE THEREOF” (LG HOUSEHOLD & HEALTH CARE LTD., priority 2020, published 2024).
